This passage reports IC50 results from PubChem BioAssay AID652246 (Sanford-Burnham Center for Chemical Genomics, 2013).

pIC50: −log10 of the molar value. Calls of active or inactive are those of the source. The rule behind the calls is not given here. Bounds are passed on as bounds.

The test deals with HT1080 viability, ATPLite luminescence, overnight. The test can be described thus: viability of HT1080 fibrosarcoma cells – cell-based, ATPLite luminescence, set 2, cytotoxicity control for MT1-MMP activation inhibitor project, dose response (AID 652246).

The term IC50 denotes the concentration that gives 50% inhibition. For `O=c1cc2oc3cc(O)c(O)cc3c(-c3ccccc3[N+](=O)[O-])c-2cc1O`, the IC50 was > 80 µM (inactive).

For the compound `CN(C)/C=C/c1oc2ccc(O)cc2c1[N+](=O)[O-]`, the IC50 was > 80 µM (inactive).

With `O=C(NNc1c2ccccc2nc2ccccc12)c1ccccc1O`, the IC50 is > 80 µM (inactive).

On to `Cn1cccc1/C=C1/C(=O)NC(=S)N(Cc2ccc(F)cc2)C1=O`, for which the IC50 is > 80 µM (inactive).

The pIC50 is the negative decadic logarithm of the IC50, by convention in mol/L. Take `CN(CCCC(=O)O)c1ccc(N=Nc2ccc([N+](=O)[O-])cc2)cc1`: the pIC50 was 4.80.

For `C[n+]1c2ccccc2nc2ccc(NCCO)cc21`, the IC50 was > 80 µM (inactive).

On to `O=c1ccc2c(-c3ccccc3S(=O)(=O)O)c3ccc(O)c(O)c3oc-2c1O`, for which the IC50 is > 80 µM (inactive).

Regarding `COc1ccc(OCC(=O)NNc2c3ccccc3nc3ccccc23)cc1`, the IC50 was > 80 µM (inactive).

As for `Cc1c(C(=O)O)c(O)cc2c1C(=O)c1c(O)c([C@@H]3O[C@H](CO)[C@@H](O)[C@H](O)[C@H]3O)c(O)c(O)c1C2=O`, the IC50 is > 80 µM (inactive).

Regarding `Cc1ccc(C(=O)NNc2c3ccccc3nc3ccccc23)cc1`, the IC50 was > 80 µM (inactive).

As for `Oc1ccc(N=Nc2c(O)ccc3ccccc23)cc1`, the IC50 was 54.8 µM (inactive).

For `CC[n+]1c(/C=C/Nc2ccccc2)sc2ccccc21`, the IC50 was > 80 µM (inactive).

Consider `COc1ccccc1N=Nc1nc(-c2ccccc2)c(-c2ccccc2)[nH]1`, for which the IC50 was > 80 µM (inactive).

In the case of `O=S(=O)(O)c1cc(O)c(N=Nc2ccc(O)cc2O)c2ccccc12`, the IC50 is 30.5 µM (inactive).

With `CCN1C(=O)/C(=C2\C=Cc3ccccc3N2CC)SC1=S`, the IC50 is > 80 µM (inactive).

With `CN1/C(=C/C=C/c2n(C)c3cc([N+](=O)[O-])c([N+](=O)[O-])cc3[n+]2C)C(C)(C)c2ccccc21`, the IC50 was 39.5 µM (inactive).

On to `CN1/C(=C\C(=O)c2cncc(Br)c2)C(C)(C)c2ccccc21`, for which the IC50 is 30.2 µM (inactive).

`COc1ccc2nc(-n3c(O)c(C4=c5ccccc5=NC4=O)[nH]c3=S)sc2c1`: the IC50 was > 80 µM (inactive).

Regarding `COc1cc(-c2cc(=O)c3c(O)c(OC)c(OC)cc3o2)cc(OC)c1O`, the IC50 is > 80 µM (inactive).

`Nc1nc(-c2ccccc2)c(N=Nc2ccccc2Cl)s1`: the IC50 was > 80 µM (inactive).

For the compound `CN1/C(=C\C=N\NC(=O)c2ccc(O)cc2)C(C)(C)c2ccccc21`, the IC50 is > 80 µM (inactive).
